Results: ChEMBL document CHEMBL4007385, “Prodrug approach: An overview of recent cases” (Eur J Med Chem, 2017)

Experiment: Oral bioavailability in human
Format: ADME, organism-based
Conditions: in vivo

## CCC(CC)O[C@@H]1C=C(C(=O)O)C[C@H](N)[C@H]1NC(C)=O [OSELTAMIVIR CARBOXYLATE]
  bioavailability: 5%

## CCOC(=O)C1=C[C@@H](OC(CC)CC)[C@H](NC(C)=O)[C@@H](N)C1 [OSELTAMIVIR]
  bioavailability: 80%
